The record followed here is US20160089371A1, “Combination of Kinase Inhibitors and Uses Thereof” (INTELLIKINE, LLC, priority 2013, published 2016).

Series [1] in a line: Steady-state blood glucose (Example 42). Type of series: in vivo, Mus musculus. To be noted: Compound B 0.3 mg/kg, Compound A 60 mg/kg, alone or combined; returned to normal within an hour of dosing. How it is done:
Blood glucose levels were measured via a tail knick using a FreeStyle® handheld blood glucose monitor (Abbott Laboratories) at 5, 15, 30, 60, and 90 minutes after the last dose (Day 29).

Series [2] deals with MDA-MB-361 (PI3Kα/HER2 carcinoma) tumors. Kind of series: In vivo efficacy in xenogenic mouse model of breast cancer. Also on record: species or system nude mice. The settings on record: 70 mg/kg Pan-PI3K inhibitor; 60 mg/kg compound A. How it is done:
Blood glucose was monitored periodically following administration of treatment.
Treatment of tumors (MDA-MB-361) with compounds was discontinued on Day 30. Tumors were measured every 2-5 days.

Series [3] has as its system tumor cells harboring PI3K α mutations. Description: Proliferation of tumor cells with or without PI3K α mutations. Type of series: cell-based. The settings on record: FIG. 13.
Series [4] has as its system B cell function. Kind of series: B cell function in vivo, antibody production after TNP-Ficoll immunization. The settings on record: mice immunized with TNP-Ficoll; 70 mg/kg GDC0941; 30, 60 or 120 mg/kg Compound A; 7 days; FIG. 8. How it is done:
Mice were immunized with TNP-Ficoll and treated with 1) vehicle; 2) 70 mg/kg GDC0941; 3) 30 mg/kg Compound A; 4) 60 mg/kg Compound A; or 5) 120 mg/kg Compound A for 7 days. Antibody production was measured as a percentage of control group that were treated with vehicle.

Series [5] concerns Akt and S6 phosphorylation. Description: Western blot of PI3K pathway phosphorylation (Akt, S6) in cancer cells. Type of series: cell-based.
Series [6] relates to PTEN mutant cells. Kind of series: Western blot of Akt, S6, 4EBP phosphorylation in PTEN mutant cells. Type of series: cell-based. To be noted: PTEN-mutant cell line; FIG. 12B. For orientation: In western blotting, separated proteins are transferred to a membrane and probed.
In series [7] the test system is PI3K pathway in MDA-MB-361, MDA-MB-453 and SK-Br3 cells. Kind of series: PI3K pathway Western blot in cell lines with elevated PI3Kα activity. Type of series: cell-based, human. To be noted: 2 h treatment; MDA-MB-361, MDA-MB-453, SK-Br3. The procedure: Cells comprising one or more mutations in PI3Kα, including but not limited to breast cancer cells (e.g., MDA-MB-361, T47D, SKOV-3), and cells comprising one or more mutations in PTEN including but not limited to prostate cancer cells (e.g., PC3), are typically grown in cell growth media such as DMEM supplemented with fetal bovine serum and/or antibiotics, and grown to confluency. Cells are then treated with various concentrations of test compound for about 2 hours and subsequently lysed in cell lysis buffer. Lysates are subjected to SDS-PAGE followed by Western blot analysis to detect downstream signaling markers, including but not limited to pAKT(S473), pAKT(T308), pS6, and p4E-BP1.
MDA-MB-361(PIK3CA-E545K), MDA-MB-453 (PIK3CA-H1047R), and SK-Br3 (Her2) cells were treated with various concentrations of Compound A for 2 h and subsequently lysed. Lysates were subjected to SDS-PAGE followed by Western blot analysis as described above to detect downstream pathway markers.

Series [8] relates to PI3 kinase signaling pathway in MDA-MB-361, HCC-1419 and NCI-H1048 cells. Description: Cellular signaling immunoblot in human tumor cell lines. To be noted: single agents; Compound B 5-100 nM, Compound A 1 and 3 μM; 2 or 24 hours. Type of series: cell-based. The procedure: Compound A was synthesized at Intellikine and was supplied as a stock of 10 mM in 100% DMSO and diluted in the respective cell line's growth media.
Prior to treatment, cells were plated at 2×10^5 cells/well in 12-well plates in normal growth media and grown to 80% confluence. Cells were treated for 2 or 24 hours in a CO2 incubator set to 37° C. with normal growth media containing inhibitor diluted in DMSO.
Media was aspirated, cells were washed with 1×PBS, Ice cold 1× Cell Lysis Buffer was prepared from 10× stock and 100 μM 4-(2-Aminoethyl) benzenesulfonyl fluoride hydrochloride (AEBSF) andlmM sodium orthovanadate […] was added. Cells were lysed by adding 1× Cell Lysis Buffer (100 μL per well of 12-well plate of cells). Cells incubated on ice for 20 to 30 minutes to allow complete lysis, and lysates were transferred to microcentrifuge tubes, sonicated for 10 seconds, and subjected to microcentrifugation at 14,000×g for 10 minutes at 4° C. Cleared supernatants were transferred to fresh tubes, and stored at −20° C. for Western blot analysis. […] Molecular weight markers were loaded, the gel electrophoresed at 200V for 40 minutes.
The gels were electrotransferred to nitrocellulose membranes, and incubated in blocking buffer (Tris buffered saline plus 0.5% Tween-20 (TBS/T)+5% bovine serum albumin (BSA)) for 1 hour at room temperature. […]

Series [9] deals with 786-O cells (non-mutated PI3Kα) tumors. Description: 786-O human kidney carcinoma xenograft. The settings on record: Compound A orally 60 and 120 mg/kg; 1 mg/kg (QD) oral solution. Type of series: in vivo, mice. How it is done:
Compound A was administered orally at 60 and 120 mg/kg and compound A was administered orally as a solution at 1 mg/kg (QD). For example, a PI3Kα inhibitor is compared to a kinase inhibitor with specificity for mTor. […] FIG. 6C also provides biochemical potency data for the two compared inhibitors. PI3 Kinase α, β, γ and δ activity was assayed using the PI3 Kinase HTRF® assay kit (Millipore Corporation). Purified recombinant PI3Kα, PI3Kβ, PI3Kγ and PI3Kδ were obtained from Millipore Corporation. […] Emission ratios were converted into percent inhibitions and imported into GraphPad Prism software. […] IC50 values were determined using a nonlinear regression model available in GraphPad Prism 5.
A general note: In xenograft studies the graft and the host belong to different species.

For the compound `Nc1nc2cc(-c3ccc4ncc(C(=O)N5CCOCC5)n4c3)ccc2o1` [Compound A], in series [1], the “steady-state blood glucose level after the last dose (Day 29)” value is given as “slight increase”. In [2], the “tumor weight in breast cancer model (FIG. 9 left panel)” value is “reduction in tumor weight”. Also, the “inhibition of proliferation of tumor cells” value in series [3] is listed as “preferentially inhibits proliferation”. Further, the “B cell function in vivo (antibody production, percentage of vehicle control)” value in series [4] is listed as “not”. The results for the “inhibition of Akt phosphorylation at serine 473” value in series [5] (FIG. 12A) and in series [6] were “inhibition of Akt phosphorylation at serine 473” and “reduced inhibition”, respectively. In addition, the “inhibition of the PI3K pathway in cell lines with elevated PI3K α activity” value in series [5] (MDA-MB-361, MDA-MB-453, SKBr3 breast cancer cells, FIG. 11) is listed as “inhibition of the PI3K pathway”. Moreover, the “inhibition of the PI3K pathway (Western blot, FIG. 11)” value in [7] is on record as “inhibition of the PI3K pathway”. The “phosphorylation of downstream targets AKT, S6 and 4E-BP1 (Western blot, FIG. 15)” value in [8] is “potently inhibited”. Further, in [9], the “inhibition of kinase activity and tumor growth in 786-O model (FIG. 6)” value is on record as “decreased activity”.
